Source: patent US11052092B2, “N-{[2-(piperidin-1-yl)phenyl](phenyl)methyl}-2-(3-oxo-3,4-dihydro-2H-1,4-benzoxazin-7-yl)acetamide derivatives and related compounds as ROR-gamma modulators for treating autoimmune diseases” (Genfit, priority 2017, dated 2021)

Columns and labels:
psoriasis model = settings: administered by injection; cited from earlier work
[1] = test system: patients with moderate to severe psoriasis; settings: cited from earlier work
[2] = test system: Murine EL-4 lymphoma cell line overexpressing human RORγt; assay: IL-17 secretion from EL4 murine lymphoma; assay type: cell-based; settings: Mus musculus; human RORγt-transfected EL4 cells, PMA (10 ng/mL) and ionomycin (1 μM), 24 h; read-out: IC50, IL-17 secretion inhibition
Procedure, shortened: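 EL-4 cells electroporated with hRORγt plasmid, seeded at 150000 cells/well and pretreated with compound for 24 h, then stimulated with PMA (10 ng/mL) plus ionomycin (1 μM final) with compound for a further 24 h at 37 °C. IL-17 in supernatant measured by HTRF or ELISA.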

[3] = target: T1, RORγt ligand-binding domain (RORγt-LBD) (Homo sapiens, UniProt P51449); assay: Time-resolved FRET (TR-FRET) RORγt coactivator assay; settings: GST-RORγ-LBD, biotinylated RIP140 peptide, 2 hours at room temperature
T1 construct: 20 nM recombinantly expressed RORγ-LBD fused to GST
T1 sequence (P51449 269-508 limits assumed): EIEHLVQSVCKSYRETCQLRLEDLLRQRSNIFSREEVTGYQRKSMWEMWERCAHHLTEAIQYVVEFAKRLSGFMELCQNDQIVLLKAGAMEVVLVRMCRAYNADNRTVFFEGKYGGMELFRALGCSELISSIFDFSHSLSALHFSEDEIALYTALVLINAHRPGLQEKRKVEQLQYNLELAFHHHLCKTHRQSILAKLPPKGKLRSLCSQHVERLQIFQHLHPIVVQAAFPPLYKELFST
Procedure, shortened: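 GST-tagged RORγt-LBD (20 nM) with 30 nM biotinylated RIP140-derived peptide, streptavidin-terbium and d2 anti-GST in CHAPS buffer (1 mM DTT, 2 mM EDTA, 0.1% BSA), 1% DMSO. Compounds at 0.3 nM–30 μM final, equilibrated 2 h, room temperature, dark. Coactivator displacement lowers the TR-FRET signal; IC50 (μM) and Emax (%) reported.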

human RORγt = target: T2, human RORγt (Homo sapiens, UniProt P51449); assay: RORE Luciferase/RORγt transactivation assay; assay type: cell-based; settings: COS-7 cells transfected with human IL-17 promoter luciferase reporter and RORγt plasmid; 20 h with compound; read-out: IC50, RORγt activity inhibition
T2 construct: the full-length cDNA of human RORγt; expressed in transfected cells; host or cells: COS-7 (monkey kidney)
T2 sequence (P51449 1-497 isoform P51449-2): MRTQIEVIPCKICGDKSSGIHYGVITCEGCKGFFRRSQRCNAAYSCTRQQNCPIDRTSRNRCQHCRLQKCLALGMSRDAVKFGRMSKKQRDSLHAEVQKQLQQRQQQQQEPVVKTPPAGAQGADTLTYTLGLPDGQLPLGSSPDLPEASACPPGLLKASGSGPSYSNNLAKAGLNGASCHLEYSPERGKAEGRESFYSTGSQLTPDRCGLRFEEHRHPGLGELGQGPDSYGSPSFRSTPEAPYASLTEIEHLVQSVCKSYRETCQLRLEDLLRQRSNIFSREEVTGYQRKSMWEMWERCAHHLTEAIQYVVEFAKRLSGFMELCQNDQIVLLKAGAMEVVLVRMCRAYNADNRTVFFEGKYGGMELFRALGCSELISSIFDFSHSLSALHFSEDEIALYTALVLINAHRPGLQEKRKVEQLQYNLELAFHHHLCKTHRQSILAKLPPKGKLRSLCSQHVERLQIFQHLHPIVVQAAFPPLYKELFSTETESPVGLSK
Procedure, shortened: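 Transactivation read-out: luminescence (Steady-Glo, 30 min at room temperature) from COS-7 cells carrying a RORγt expression plasmid plus a 4.3 kb IL-17 promoter luciferase reporter. Compound exposure was in serum-free DMEM with 0.3% DMSO final. Reported values are IC50 (μM) and Emax (%).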

multiple sclerosis model = settings: administered by injection; cited from earlier work

| SMILES | IC50 [2] | IC50 [3] | IC50 (human RORγt) | also measured |
| --- | --- | --- | --- | --- |
| Cc1ccc([C@@H](NC(=O)Cc2ccc3oc([C@@H](O)c4c(C)noc4C)cc3c2)c2ccccc2)c(C)c1 [TMP778] |  |  |  | efficacy in psoriasis model (psoriasis model): efficacious |
| CCS(=O)(=O)c1ccc(CNC(=O)c2cnc3c(c2)CN(C[C@H]2CC[C@H](C(F)(F)F)CC2)[C@H]3C(C)C)nc1 [VTP-43742] |  |  |  | reduction in the Psoriasis Area Severity Index (PASI) score relative to placebo ([1]; 350 mg dose group): 24%; placebo-adjusted PASI score reduction ([1]; 700 mg dose group): 30%; plasma IL-17 levels ([1]; relative to placebo): reduced |
| CC(=O)Nc1nc(C)c(S(=O)(=O)Nc2ccc(C(O)(C(F)(F)F)C(F)(F)F)cc2)s1 [SR1001] |  |  |  | efficacy in multiple sclerosis model (multiple sclerosis model): efficacious |
| Cc1ccc(C(NC(=O)Cc2ccc3c(c2)OCC(=O)N3)c2ccccc2)c(N2CCCCC2)c1 (stereo not shown) [Cpd. 1, N-{[4-methyl-2-(piperidin-1-yl)phenyl](phenyl)methyl}-2-(3-oxo-3,4-dihydro-2H-1,4-benzoxazin-7-yl)acetamide] | 100 to 1000 nM | 100 to 1000 nM | 100 to 1000 nM |  |
| Cc1ccc(C(NC(=O)C2(c3ccc4c(c3)CS(=O)(=O)C4)CC2)c2ccc(C)o2)c(C)c1 (stereo not shown) [Cpd. 74, N-[(2,4-dimethylphenyl)(5-methylfuran-2-yl)methyl]-1-(2,2-dioxo-1,3-dihydro-2-benzothiophen-5-yl)cyclopropane-1-carboxamide] | 100 to 1000 nM | < 10 nM | 10 to 100 nM |  |

More lines, main results first:

| IC50 [2] | IC50 [3] | IC50 (human RORγt) | SMILES | also measured |
| --- | --- | --- | --- | --- |
| < 100 nM | 100 to 1000 nM | 10 to 100 nM | Cc1ccc(C(NC(=O)Cc2ccc3c(ccn3C(=O)C3CCOCC3)c2)c2ccc(C)o2)c(N2CCCCC2)c1 (stereo not shown) [Cpd. 118, N-{[4-methyl-2-(piperidin-1-yl)phenyl](5-methylfuran-2-yl)methyl}-2-[1-(oxane-4-carbonyl)-1H-indol-5-yl]acetamide] | melting point: 96 °C |
| < 100 nM | 10 to 100 nM | 10 to 100 nM | Cc1ccc(C(NC(=O)Cc2ccc3[nH]cc(CCS(C)(=O)=O)c3c2)c2ccc(C)o2)c(N2CCCCC2)c1 (stereo not shown) [Cpd. 98, 2-[3-(2-methanesulfonylethyl)-1H-indol-5-yl]-N-{[4-methyl-2-(piperidin-1-yl)phenyl](5-methylfuran-2-yl)methyl}acetamide] |  |
| 100 to 1000 nM | 10 to 100 nM | 10 to 100 nM | CCOc1nc2cc(CC(=O)NC(c3ccccc3)c3ccc(C)cc3Br)ccc2[nH]1 (stereo not shown) [Cpd. 90, N-[(2-bromo-4-methylphenyl)(phenyl)methyl]-2-(2-ethoxy-1H-1,3-benzodiazol-5-yl)acetamide] |  |
| 100 to 1000 nM | 10 to 100 nM | 10 to 100 nM | Cc1ccc(C(NC(=O)Cc2ccc3[nH]c(C)nc3c2)c2ccccc2)c(Br)c1 (stereo not shown) [Cpd. 81, N-[(2-bromo-4-methylphenyl)(phenyl)methyl]-2-(2-methyl-1H-1,3-benzodiazol-5-yl)acetamide] | melting point: 138 °C |
